# Data published in publication PMC4790320, “Purification of a Multidrug Resistance Transporter for Crystallization Studies” (Antibiotics, 2015).
# Molecular target: T1, MdtM (Escherichia coli, UniProt P39386)
# T1 construct: full ORF in modified pBAD/Myc-His A, decaHis tag removed with thrombin; expressed in E. coli LMG194; IMAC with ATP wash to remove chaperonin, SEC in DDM; ~45 kDa; monomer
# Test: intrinsic tryptophan fluorescence quenching
# Assay type: binding
# T1 sequence (P39386 whole entry): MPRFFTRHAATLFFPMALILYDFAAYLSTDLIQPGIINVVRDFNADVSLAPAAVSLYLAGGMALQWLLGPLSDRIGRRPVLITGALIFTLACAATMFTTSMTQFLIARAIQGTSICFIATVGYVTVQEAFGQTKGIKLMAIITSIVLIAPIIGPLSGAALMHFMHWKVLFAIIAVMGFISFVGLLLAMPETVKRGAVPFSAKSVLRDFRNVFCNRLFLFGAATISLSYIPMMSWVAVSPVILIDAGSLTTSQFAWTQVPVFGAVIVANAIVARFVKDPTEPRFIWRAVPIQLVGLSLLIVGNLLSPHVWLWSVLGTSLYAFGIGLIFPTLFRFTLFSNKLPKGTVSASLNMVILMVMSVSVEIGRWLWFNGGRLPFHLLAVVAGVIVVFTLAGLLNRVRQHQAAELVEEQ
smiles,measurement,value
O=C(N[C@H](CO)[C@H](O)c1ccc([N+](=O)[O-])cc1)C(Cl)Cl [chloramphenicol],Kd,36 ± 3 nM
